Laboratory results reported in publication PMC10707071, “Characterization of the Novel Leaderless Bacteriocin, Bawcin, from Bacillus wiedmannii” (International Journal of Molecular Sciences, 2023).
No end group written: not given here.

Tests used:
proteinase K = target: T1, proteinase K (Parengyodontium album, UniProt P06873); assay: Protease sensitivity testing (residual activity by spot-on-lawn assay); format: in vitro ADME; conditions: 1 mg/mL proteinase K in 50 mM phosphate buffer pH 8, 1 h at 37 °C, bawcin at 1×, 2×, 4× the MIC, spot-on-lawn against M. luteus, triplicate
T1 construct: purchased Fisher Scientific
T1 sequence (P06873 106-384): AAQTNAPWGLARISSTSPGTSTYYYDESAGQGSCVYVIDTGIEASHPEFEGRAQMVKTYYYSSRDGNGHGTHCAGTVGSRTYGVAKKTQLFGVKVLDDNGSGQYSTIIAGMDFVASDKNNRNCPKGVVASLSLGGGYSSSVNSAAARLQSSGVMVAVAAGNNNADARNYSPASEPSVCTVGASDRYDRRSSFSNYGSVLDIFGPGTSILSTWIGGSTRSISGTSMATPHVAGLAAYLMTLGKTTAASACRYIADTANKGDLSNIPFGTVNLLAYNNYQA
Description: (§1) The MIC of bawcin against each bacterial strain was determined using the spot-on-lawn assay as described previously with modifications. A Mueller Hinton (MH) double-agar plate was prepared by pouring 5 mL of 0.75% MH agar inoculated with 50 µL of 0.10 OD625 bacterial suspension onto 20 mL of dried 1.5% MH agar. Bawcin diluted with sterile water to 128, 64, 32, 16, 8, 4, 2, and 1 µM was spotted in 10 µL aliquots onto the top agar layer, along with 10 µL of an antibiotic positive control (ampicillin or kanamycin) and sterile water negative control. Plates were incubated at 37 °C for 16–20 h and the MIC was identified as the lowest concentration in which a zone of inhibition was observed, where partial bacterial growth within the zone of inhibition was considered HR. Assays were performed in triplicate.
(§2) Protease stability testing was evaluated as described previously with modification. Papain (Scholar Chemistry, Rochester, NY, USA), pepsin (Northwest Scientific, Billings, MT, USA), trypsin (Sigma-Aldrich, Burlington, MA, USA), alpha-chymotrypsin (Worthington, Lakewood, NJ, USA), and proteinase K (Fisher Scientific, Ottawa, ON, Canada) were prepared to a final concentration of 1 mg/mL in 50 mM phosphate buffer adjusted to pH 2 (pepsin), 6 (papain), and 8 (proteinase K, trypsin, alpha-chymotrypsin). Bawcin was combined with each protease to final concentrations of 1×, 2×, and 4× the MIC. Bawcin’s residual antimicrobial activity against M. luteus was determined via spot-on-lawn assay as described above. The following samples were spotted for each assay: (1) protease combined with bawcin at each concentration, bawcin alone at each concentration, buffer alone, protease in buffer alone, ampicillin (positive control), and sterile water (negative control), where all solutions were incubated for 1 h at 37 °C prior to spotting except ampicillin and sterile water. Assays were performed in triplicate.

papain = target: T2, papain (Carica papaya, UniProt P00784); assay: as above; format: in vitro ADME; conditions: spot-on-lawn against M. luteus, triplicate
T2 construct: purchased Scholar Chemistry
T2 sequence (P00784 134-345): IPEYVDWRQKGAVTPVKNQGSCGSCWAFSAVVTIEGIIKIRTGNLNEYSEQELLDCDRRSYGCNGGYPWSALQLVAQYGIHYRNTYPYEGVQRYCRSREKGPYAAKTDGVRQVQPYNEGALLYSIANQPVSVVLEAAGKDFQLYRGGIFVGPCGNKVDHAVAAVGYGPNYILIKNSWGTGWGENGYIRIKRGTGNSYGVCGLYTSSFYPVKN
Description: as §1, §2

alpha-chymotrypsin = target: T3, alpha-chymotrypsin (Bos taurus, UniProt P00766); assay: as above; format: in vitro ADME; conditions: 1 mg/mL alpha-chymotrypsin in 50 mM phosphate buffer pH 8, 1 h at 37 °C, bawcin at 1×, 2×, 4× the MIC, spot-on-lawn against M. luteus, triplicate
T3 construct: purchased Worthington
Description: as §1, §2

pepsin = target: T4, pepsin (Sus scrofa, UniProt P00791); assay: as above; format: in vitro ADME; conditions: 1 mg/mL pepsin in 50 mM phosphate buffer pH 2, 1 h at 37 °C, bawcin at 1×, 4× the MIC (8, 16, 32 µM), spot-on-lawn against M. luteus, triplicate
T4 construct: purchased Northwest Scientific
T4 sequence (P00791 60-385): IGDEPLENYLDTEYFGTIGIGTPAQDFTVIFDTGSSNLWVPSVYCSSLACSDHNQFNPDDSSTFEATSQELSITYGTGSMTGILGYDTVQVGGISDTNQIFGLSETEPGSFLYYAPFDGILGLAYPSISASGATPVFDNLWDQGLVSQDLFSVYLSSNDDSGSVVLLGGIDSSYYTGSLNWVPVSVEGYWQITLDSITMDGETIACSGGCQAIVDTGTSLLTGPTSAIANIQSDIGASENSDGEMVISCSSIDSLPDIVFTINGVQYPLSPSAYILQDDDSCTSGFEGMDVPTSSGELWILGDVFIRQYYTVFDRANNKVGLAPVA
Description: as §1, §2

trypsin = assay: as above; format: in vitro ADME; conditions: 1 mg/mL trypsin in 50 mM phosphate buffer pH 8, 1 h at 37 °C, bawcin at 1×, 2×, 4× the MIC, spot-on-lawn against M. luteus, triplicate
Description: as §1, §2

[1] = tested on: Lactococcus lactis ssp. lactis (Ward’s 85W 1774); format: cell-based
Description: as §1

[2] = tested on: Staphylococcus aureus ATCC 6538; format: cell-based
Description: as §1

[3] = tested on: Enterococcus faecalis (Ward’s 85W 1100); format: cell-based
Description: as §1

[4] = tested on: Listeria monocytogenes ATCC 19115; format: cell-based
Description: as §1

[5] = tested on: Bacillus subtilis (Ward’s 85W 1650); format: cell-based
Description: as §1

[6] = tested on: Micrococcus luteus (Ward’s 85W 0966); format: cell-based
Description: as §1

[7] = tested on: Bacillus cereus (Ward’s 85W 0200); format: cell-based
Description: as §1

[8] = tested on: Lactobacillus delbruekii ssp. bulgaricus (VWR 470179-126); format: cell-based
Description: as §1

[9] = tested on: Lactobacillus casei (Ward’s 85W 1682); format: cell-based
Description: as §1

“MLSFAKLVARLSASKAKWAWNNKGKVVEWIKNGATFEWISNKIDQMMG [bawcin]” was tested, and the “Residual antimicrobial activity in the presence of proteinase K” value (proteinase K) was “lost antimicrobial activity at all concentrations tested”, the “Residual antimicrobial activity when combined with papain” value (papain; 1 mg/mL papain in 50 mM phosphate buffer pH 6, 1 h at 37 °C, bawcin at 1×, 2×, 4× the MIC (8, 16, 32 µM)) was “retained its antimicrobial activity” and the “Lowest bawcin concentration remaining active in combination with papain” value (papain; 1 mg/mL papain, pH 6, 1 h at 37 °C, 32, 16, 8 µM tested) was 8 µM. For the same sequence, the “Residual antimicrobial activity in the presence of alpha-chymotrypsin” value (alpha-chymotrypsin) was “lost antimicrobial activity at all concentrations tested”, the “Residual antimicrobial activity when combined with pepsin” value (pepsin) was “only at 4× the MIC (with HR)” and the “Residual antimicrobial activity in the presence of trypsin” value (trypsin) was “lost antimicrobial activity at all concentrations tested”. For the same sequence, the MIC [1] was 4 µM, the MIC [2] was 16 µM and the MIC [3] was 32 µM. For the same sequence, the MIC [4] was 8 µM, the MIC [5] was 8 µM and the MIC [6] was 4 µM. For the same sequence, the MIC [7] was 16 µM, the MIC [8] was 8 µM and the MIC [9] was 8 µM.
